From US9717803B2, “Enzymatic conjugation of polypeptides” (Innate Pharma, priority 2011, dated 2017)
“Also recorded” adds a separate entry of the source. Like-named read-outs stand apart in the source and are kept apart here.

Key:
[1] = molecular target: T1, bacterial transglutaminase (BTG) (Streptomyces mobaraensis, UniProt P81453); type: biochemical; settings: for BTG coupling, result in words: chADC1 N297S and chSGN35 N297S, 18.5 h
T1 construct: purchased Zedira, Darmstadt, Germany
T1 sequence (P81453 77-407): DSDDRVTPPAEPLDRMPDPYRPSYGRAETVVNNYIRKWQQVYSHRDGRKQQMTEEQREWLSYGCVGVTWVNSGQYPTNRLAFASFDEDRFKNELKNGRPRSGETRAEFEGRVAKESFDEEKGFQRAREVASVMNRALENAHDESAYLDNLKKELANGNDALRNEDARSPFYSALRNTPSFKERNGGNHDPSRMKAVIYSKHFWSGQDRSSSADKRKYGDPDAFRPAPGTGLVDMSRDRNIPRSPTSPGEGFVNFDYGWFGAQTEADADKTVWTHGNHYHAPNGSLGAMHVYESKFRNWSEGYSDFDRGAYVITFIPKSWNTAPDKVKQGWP

[2] = cited from earlier work
[3] = Solubility in water / aqueous buffer; type: physicochemical; settings: aqueous buffer containing a maximum of 10% DMSO
[4] = chADC1 N297S, 80 eq ligand, 6 U/ml BTG, 1 mg/ml mAb, 37° C.
[5] = PNGaseF-deglycosylated chADC1, 6 U/mL BTG (optimized: 80 eq ligand, 1 mg/ml mAb, 37° C.)
[6] = PNGaseF-deglycosylated chADC1, 80 eq ligand, 6 U/ml BTG, 1 mg/ml mAb, 37° C.
[7] = PNGaseF-deglycosylated chADC1, standard conditions, 1 U/mL BTG
[8] = PNGaseF-deglycosylated chCE7, 80 eq ligand, 6 U/ml BTG, 1 mg/ml mAb, 37° C.
[9] = chADC1 N297Q (two acceptor glutamines per heavy chain), 80 eq ligand, 6 U/ml BTG, 1 mg/ml mAb, 37° C.

Compound: [N-]=[N+]=NCCOCCOCCOCCOCCN [Azide-PEG4-NH2, reference compound]
- BTG coupling to two glutamines per heavy chain, result in words ([1]; chADC1 N297Q, 80 eq ligand, 6 U/ml BTG, 1 mg/ml mAb, 37° C.): complete coupling to two glutamines on all heavy chains
- BTG coupling to heavy chain, result in words [1, 4]: quantitative

Compound: NCCCCCNC(=O)CSC1CC(=O)N(CCNC(=O)CN2CCN(CC(=O)O)CCN(CC(=O)O)CCN(CC(=O)O)CC2)C1=O (stereo not shown) [C2-DOTA, 2,2′,2″-(10-(2-((2-(3-((2-((5-aminopentyl)amino)-2-oxoethyl)thio)-2,5-dioxopyrrolidin-1-yl)ethyl)-amino)-2-oxoethyl)-1,4,7,10-tetraazacyclododecane-1,4,7-triyl)triacetic acid]
- BTG coupling to heavy chain, result in words [1, 5]: minor peak modified chADC1 heavy chain
- heavy chain with one linker coupled (LC-MS peak) [1, 6]: 30%
- unmodified heavy chain (LC-MS peak) [1, 6]: 70%
- BTG coupling to heavy chain, result in words [1, 7]: only unmodified chADC1 heavy chain
- BTG coupling to heavy chain, result in words [1, 4]: quantitative coupling could not be accomplished

Compound: NCCCCCNC(=O)CCCCCSC1CC(=O)N(CCNC(=O)CN2CCN(CC(=O)O)CCN(CC(=O)O)CCN(CC(=O)O)CC2)C1=O (stereo not shown) [C6-DOTA, 2,2′,2″-(10-(2-((2-(3-((6-((5-aminopentyl)amino)-6-oxohexyl)thio)-2,5-dioxopyrrolidin-1-yl)ethyl)-amino)-2-oxoethyl)-1,4,7,10-tetraazacyclododecane-1,4,7-triyl)triacetic acid]
- unmodified heavy chain (LC-MS peak) [1, 6]: 30%
- BTG coupling to heavy chain, result in words [1, 4]: near quantitative coupling

Compound: CC[C@@]1(O)C(=O)OCc2c1cc1n(c2=O)Cc2cc3ccccc3nc2-1 [CPT, camptothecin]
- solubility in water [2]: about 2.5 μg/ml

Compound: CC(=O)O[C@H]1C(=O)[C@@]2(C)[C@H]([C@H](OC(=O)c3ccccc3)[C@]3(O)C[C@H](OC(=O)[C@H](O)[C@@H](NC(=O)c4ccccc4)c4ccccc4)C(C)=C1C3(C)C)[C@]1(OC(C)=O)CO[C@@H]1C[C@@H]2O [PTX, paclitaxel]
- solubility in water [2]: less than 1 μg/ml

Compound: NCCCCCNC(=O)c1ccc(-c2c3ccc(=O)cc-3oc3cc(O)ccc23)c(C(=O)O)c1 [cadaverin-fluorescein linker, reference compound]
- BTG coupling to heavy chain, result in words [1, 5]: coupling could not be achieved; also recorded: Only partial modification

Compound: CN(C)c1cccc2c(S(=O)(=O)NCCCCCN)cccc12 [dansyl-cadaverin, reference compound]
- BTG coupling to heavy chain, result in words [1, 5]: modification of all heavy chains
- BTG coupling to heavy chain, result in words [1, 7]: did not go to completion
- solubility in aqueous buffer, in words [3]: limited solubility

Compound: biotin-cadaverin [reference compound]
- BTG coupling to heavy chain, result in words [1, 5]: modification of all heavy chains
- BTG coupling to heavy chain, result in words [1, 7]: did not go to completion

Compound: maleimide-valine-citrullin-PAB-MMAF+6C Thiol Linker [MMAF linker]
- heavy chain with one linker coupled (LC-MS peak) [1, 6]: 30%
- unmodified heavy chain (LC-MS peak) [1, 6]: 70%
- heavy chain with one linker coupled (LC-MS peak) [1, 8]: 19%
- unmodified heavy chain (LC-MS peak) [1, 8]: 81%
- BTG coupling with prolonged incubation, result in words ([1]; PNGaseF-deglycosylated mAb, 160 eq substrate, 6 U/mL BTGase, 40 h or 110 h, 37° C.): does not push the reaction to completion
- heavy chain with one MMAF linker (LC-MS peak) [1, 9]: 75%
- heavy chain with two MMAF linkers (LC-MS peak) [1, 9]: 25%
- BTG coupling, result in words ([1]; 40 eq linker, 4 U/mL or 2 U/mL BTG, 37° C.): quantitatively functionalized
- BTG coupling, result in words ([1]; 80 eq linker, 4 U/ml or 2 U/ml BTG, 37° C.): complete functionalization
- BTG coupling, result in words ([1]; below 40 eq linker, 4 U/mL or 2 U/mL BTG, 37° C.): no longer quantitative
- heavy chain with one linker coupled (LC-MS peak) [1, 4]: greater than 90%
